Entries after “also recorded” stand apart in the source; their conditions may differ.
Legend:
RAW 264.7 cells = assay: Cell viability of drug treated RAW 264.7 cells (CellTiter 96 AQueous One, MTS); conditions: for Viability, % Change versus Control (± s.e.m.): 10 uM; for Cell Viability % Δ: 1 μM, RAW 264.7 cells, percentage of vehicle control value, mean ± S.E.M., n = 3
Experimental: Assessments of drug anti-TNF-α and nitric oxide generation in RAW 264.7 cells: RAW 264.7 cells were purchased from ATCC Manassas, VA, USA). The cells were grown in DMEM media (Invitrogen, DMEM, high glucose, GlutaMAX Supplement, pyruvate, #10569-010) supplemented with 10% FBS (Invitrogen, Fetal Bovine Serum, qualified, heat inactivated, #16140-071) with penicillin and streptomycin (Invitrogen, Penicillin-Streptomycin (10,000 U/mL), #15140-122) and were maintained at 37 C and 5% CO2. The cells were grown to 75%-85% confluence on 10 cm plates (corning-Fal-con, #353003) following the protocol described by ATTC. to assess for drug effects on LPS-induced markers of inflammation, namely TNF-α protein and nitrite ion levels (NO2, a stable end-product of nitric oxide metabolism) cells were seeded into 24 well (VWR, #10062-896) at a density of 200×10^3 cells per well. On each plate there was one blank well where no cells were added yet culture media in the well was treated similarly to wells with cells (n=1). The blank well media was used for background subtraction for various downstream assays. twenty-four hours after seeding the plate the seeding media was replaced with fresh media. Two hours after this the cells were exposed to a range of concentrations of drug test-compound(s) dissolved in 100% tissue culture grade dimethyl sjloxide (DMSO, SIGMA #D2650). Drug stocks were prepared in a 200 times more concentrated stock in DMSO. The final concentration of DMSO added to the cells was 0.5%. The effects of each concentration of drug were assessed in 4 wells per concentration in the 24 well plate (n=3 #-4). On each plate one set of wells were assigned as drug-vehicle control (i.e. DMSO), one test compound was assessed on one 24 well plate. […] One hour after the drugs were added the cells were challenged with lipopolysaccharide (LPS, SIGMA, serotype 055:B5) at a final concentration of 60 ng/ml. Twenty to twenty-four hours after the cells were challenged with LPS the culture media was collected and utilized for the measurement of markers of inflammation.
Cellular viability assessment of drug treated RAW 264.7 cells: RAW 264.7 cell viability was determined by use of the CellTiter 96 AQueous One Solution Cell Proliferation Assay (Promega, Madison, WI). Changes in cellular health status were determined by use of indirect measures related to the formation of a colored tetrazolium dye product that can be measured spectrophotometrically at 490 nm. An increase in absorbance at 490 nm is indicative of an increase in numbers of healthy cells; similarly a reduction in absorbance is indicative of a reduction of healthy cells. After the culture media was harvested for use in TNF-α and NO2— ion assays, the media was replaced with 0.5 mL of fresh media plus 100 μL of the cell viability reaction mixture. After a 20-30 min incubation at 37° C. with 5% CO2 the absorbance at 490 nm was obtained using an infinite M200 PRO plate reader (TECAN, USA).
Statistical analyses for RAW-derived assays: Data are expressed as a percentage change from the DMSO-vehicle control measurements. Measurements are expressed as mean±standard errors, where the n number represents the number of wells in a 24 well plate. Due to the presence of one blank control well on each plate, for some drug concentrations the n number is 3 # and not 4. Statistical comparisons were undertaken by use of a One-Way ANOVA with appropriate Bonferroni corrections for multiple comparisons, as required (GraphPad InStat Version 3.05). P values of <0.05 are considered to be of statistical significance.
RAW 264.7 cell culture: RAW 264.7 mouse cells were purchased from ATCC (Manassas, VA, USA) and grown in DMEM media supplemented with 10% FCS, penicillin 100 U/ml and streptomycin 100 μg/ml (ThermoFisher Scientific, Asheville, NC, USA). The cells were maintained at 37° C. and 5% CO2.

[1] = system: LPS-induced nitrite in RAW 264.7 cells; assay: LPS-induced nitrite production in RAW 264.7 cells (Griess reagent / fluorometric kit); type: cell-based, mouse; conditions: for Nitrite, % Change versus Control (± s.e.m.): 10 uM; for nitrite level, % of vehicle control: percentage of vehicle control value (control = 100%), mean ± S.E.M., n = 3; for nitrite inhibitory activity (comparison in words): tetrafluoro vs corresponding difluoro or stereoisomer; for nitrite levels (in words): six-compound pomalidomide grouping, RAW cell assay, FIGS. 12-13
Experimental: Nitrite ion detection in drug treated […] cell culture media: To measure the levels of nitrite ion NO2—) the Griess Reagent System (Promega, Madison, WI, Cat #G2930) was utilized. The protocol followed was that recommended by the manufacturer. In brief a NO2— ion standard curve was prepared in culture media of the same composition to that used for the cell culture study. The concentration range of the standard curve was from 1.5 µM to 100 µM. Equal volumes (50 μL) of standards and unknown samples were added to clear 96 well plates in duplicate. Then 50 μL of sulfanilamide solution was added to each well and the plate was covered and incubated in the dark for 10 min. After the incubation period 50 μL of N-1-napthylethylenediamine dihydrochloride solution was added to each well and the plate was incubated in dark for a further 10 min. After this incubation, the plate was read at 550 nm on a SPECTRAmax PLUS plate reader and the absorbances were used to generate a NO2— standard curve and the NO2— ion levels of the unknown samples are determined using SoftMax Pro V5, Molecular Devices.
Most neurons are highly vulnerable to RNS and ROS. Nitric oxide (NO) is one of RNSs, which is very short lived and cannot be readily measured. However, nitrite is a stable end product of nitric oxide metabolism. Therefore, nitrite acts as a surrogate measure of NO. The Griess Reagent System (Promega Corporation, Madison, WI) can be applied to measure nitrite levels in culture media following the manufacturer's protocol, and this system was used in the present study as it is a more sensitive assay compared to quantifying actions on TNF-α by ELISA assay. […] This challenge induces high level of TNF-α protein accompanied by a robust generation of nitrite.
(§1) Cells were propagated as described by ATCC guidelines.

TNF-α = assay: LPS-induced TNF-α production in RAW 264.7 cells (ELISA); type: cell-based, mouse; conditions: for TNF-a, % Change versus Control (± s.e.m.): 10 uM; for TNF-α % Δ: percentage of vehicle control value (control = 100%), mean ± S.E.M., n = 3
Experimental: Enzyme-linked immunosorbent assay for TNF-α protein: Media TNF-α levels were measured by use of the Biolegend ELISA MAX Set Delux ELISA (#430904). The protocol used was that recommended by the manufacturer. In brief, a day prior to performing the assay, a 96 well plate was coated with a capture antibody directed against TNF-α. The following day the assay plate was washed and blocked with the kit blocking agent for 1 h while being mixed on a plate shaker at 200 rpm (all incubations were mixed at 200 rpm unless stated otherwise). A TNF-α protein standard curve was prepared in the assay diluent following the kit instructions and unknown media samples were likewise diluted in the same assay diluent. After blocking, the plate was washed and then both the standards and unknown media samples were added to the plate in duplicate. The standards and unknown samples were incubated for 2 h. After the incubation, the plate was washed and then the biotin labeled detection antibody was added to each well and incubated for a further 1 h. After this incubation, the avidin-HRP conjugate complex was added to each well and incubated for 30 min. The plate was washed and the chromogenic substrate 3,3′,5,5′-tetramethylbenzidine solution was added to each well. At this point the plate was covered and incubated in the dark for 15 min, with no mixing. After 15 min the chromogenic reaction was stopped by the addition of 2 N H2SO4 and the absorbance was read at 450 nm and for background subtractions at 570 nm, on a SPECTRAmax PLUS plate reader. The absorbances were used to generate a TNF-α a protein standard curve and the protein levels in the unknown samples were determined using SoftMax Pro V5, Molecular Devices.
as §1

[2] = LPS-activated RAW 264.7 cells (Table 9)
[3] = 1 μM, LPS-challenged RAW 264.7 cells
[4] = 10 μM, LPS-challenged RAW 264.7 cells
[5] = 30 μM, LPS-challenged RAW 264.7 cells

Nc1cccc2c1C(=O)N(C1CCC(=O)NC1=O)C2=O (stereo not shown)
Viability, % Change versus Control (± s.e.m.) (RAW 264.7 cells; [2]): 95 ± 1.2 (N.S.) %
Nitrite, % Change versus Control (± s.e.m.) [1, 2]: 91 ± 1.6 (N.S.) %
TNF-a, % Change versus Control (± s.e.m.) (TNF-α; [2]): 95 ± 4.8 (N.S.) %

2-(2,6-dioxopiperidin-3-yl)-4-fluoro-7-nitroisoindoline-1,3-dione [Compound 23]
Viability, % Change versus Control (± s.e.m.) (RAW 264.7 cells; LPS-activated RAW 264.7 cells): 104.9 ± 2.1%
Nitrite, % Change versus Control (± s.e.m.) ([1]; LPS-activated RAW 264.7 cells): 56.8 ± 2.2%
TNF-a, % Change versus Control (± s.e.m.) (TNF-α; LPS-activated RAW 264.7 cells): 86.0 ± 4.4%

C[C@H]1[C@H](N2C(=O)c3c(F)c(F)c(F)c(F)c3C2=O)C[C@@H]2C[C@H]1C2(C)C [Compound 11, 4,5,6,7-Tetrafluoro-2-((1R,2R,3R,5S)-2,6,6-trimethylbicyclo[3.1.1]heptan-3-yl) isoindoline-1,3-dione]
Cell Viability % Δ (RAW 264.7 cells): 90 ± 4%
nitrite level, % of vehicle control [1, 3]: 48 ± 2%
nitrite inhibitory activity (comparison in words) ([1]; 1 μM): more potent nitrite inhibitory activity
TNF-α % Δ (TNF-α; [3]): 76 ± 2%

C[C@@H]1[C@@H](N2C(=O)c3c(F)c(F)c(F)c(F)c3C2=O)C[C@H]2C[C@@H]1C2(C)C [Compound 12, 4,5,6,7-Tetrafluoro-2-((1S,2S,3S,5R)-2,6,6-trimethylbicyclo[3.1.1]heptan-3-yl) isoindoline-1,3-d ione]
Cell Viability % Δ (RAW 264.7 cells): 63 ± 4%
nitrite level, % of vehicle control [1, 3]: 24 ± 3%
nitrite inhibitory activity (comparison in words) ([1]; 1 μM): more potent nitrite inhibitory activity
TNF-α % Δ (TNF-α; [3]): 56 ± 5%

O=C1c2c(F)c(F)c(F)c(F)c2C(=O)N1C1CC2CCC1C2 (stereo not drawn) [Compound 15, 2-Exo-(bicyclo[2.2.1]heptan-2-yl)-4,5,6,7-tetrafluoroisoindoline-1,3-dione]
nitrite levels [1, 3]: 25-36%
nitrite level, % of vehicle control [1, 3]: 25 ± 2%
nitrite inhibitory activity (comparison in words) ([1]; 1 μM): more potent nitrite inhibitory activity; also recorded: slightly more potent than diastereomer 16
TNF-α level (TNF-α; [3]): 55-74%
TNF-α % Δ (TNF-α; [3]): 71 ± 2%

O=C1c2c(F)ccc(F)c2C(=O)N1C1CC2CCC1C2 (stereo not drawn) [Compound 21, 2-Exo-(bicyclo[2.2.1]heptan-2-yl)-4,7-difluoroisoindoline-1,3-dione]
nitrite level, % of vehicle control [1, 3]: 98 ± 7%
nitrite level, % of vehicle control [1, 4]: 127 ± 2%
nitrite level, % of vehicle control [1, 5]: 83 ± 10%
TNF-α % Δ (TNF-α; [3]): 90 ± 1%
TNF-α % Δ (TNF-α; [4]): 90 ± 1%

O=C1c2c(F)ccc(F)c2C(=O)N1C1CC2CCC1C2 (stereo not drawn) [Compound 22, 2-Endo-(bicyclo[2.2.1]heptan-2-yl)-4,7-difluoroisoindoline-1,3-dione]
nitrite level, % of vehicle control [1, 3]: 103 ± 5%
nitrite level, % of vehicle control [1, 4]: 104 ± 2%
nitrite level, % of vehicle control [1, 5]: 50 ± 3%
TNF-α % Δ (TNF-α; [3]): 102 ± 5%
TNF-α % Δ (TNF-α; [4]): 87 ± 5%

O=C1NC(=S)CCC1N1C(=O)c2c(F)ccc([N+](=O)[O-])c2C1=O (stereo not shown) [Compound 24, 4-fluoro-7-nitro-2-(2-oxo-6-thioxopiperidin-3-yl) isoindoline-1,3-dione]
Nitrite, % Change versus Control (± s.e.m.) ([1]; LPS-activated RAW 264.7 cells): 4.7 ± 1.0%
TNF-a, % Change versus Control (± s.e.m.) (TNF-α; LPS-activated RAW 264.7 cells): 51.3 ± 3.8%

Nc1ccc(F)c2c1C(=O)N(C1CCC(=O)NC1=O)C2=O (stereo not shown) [Compound 26, 4-amino-2-(2,6-dioxopiperidin-3-yl)-7-fluoroisoindoline-1,3-dione]
Viability, % Change versus Control (± s.e.m.) (RAW 264.7 cells; LPS-activated RAW 264.7 cells): 100.9 ± 1.1%
Nitrite, % Change versus Control (± s.e.m.) ([1]; LPS-activated RAW 264.7 cells): 90.3 ± 3.7%

Nc1ccc(F)c2c1C(=O)N(C1CCC(=S)NC1=O)C2=O (stereo not shown) [Compound 29, 4-amino-7-fluoro-2-(2-oxo-6-thioxopiperidin-3-yl) isoindoline-1,3-dione]
Viability, % Change versus Control (± s.e.m.) (RAW 264.7 cells; LPS-activated RAW 264.7 cells): 112.4 ± 2.9%
Nitrite, % Change versus Control (± s.e.m.) ([1]; LPS-activated RAW 264.7 cells): 59.0 ± 1.6%

Nc1c(F)ccc2c1C(=O)N(C1CCC(=O)NC1=O)C2=O (stereo not shown) [Compound 31, 4-amino-2-(2,6-dioxopiperidin-3-yl)-5-fluoroisoindoline-1,3-dione]
nitrite levels (in words) [1]: surpassed by counterparts 3′ and 26

Nc1c(F)ccc2c1C(=S)N(C1CCC(=S)NC1=O)C2=O (stereo not shown) [Compound 32, 4-amino-5-fluoro-2-(2-oxo-6-thioxopiperidin-3-yl)-3-thioxoisoindolin-1-one]
nitrite levels (in words) [1]: modest efficacy

Reference: patent publication US20260055061A1, “HALOPHTHALIMIDE COMPOUNDS AND METHODS OF USE AGAINST TBI, INFLAMMATORY DISORDER, AUTOIMMUNE DISORDER, NEURODEGENERATIVE DISEASE OR VIRAL INFECTION” (The United States of America, as represented by the …, priority 2022, published 2026)
